Measurements taken from US20240200118A1, “COMPOSITIONS AND METHODS FOR OPTIMIZING TROPISM OF DELIVERY SYSTEMS FOR RNA” (Renagade Therapeutics Management Inc., priority 2021, published 2024).

Test: In vivo biodistribution of co-delivered barcoded LNPs by Next Generation Sequencing of barcodes in tissues
Set-up: species or system BALB/c mice
Settings: liver, kidney, lung, heart and brain; tail vein, 0.01 mg/kg per barcoded payload; compared with formulations using Lipids 1 and 3
Protocol: LNP/barcode complexes were prepared as described in Example 5. LNP/Barcode complex formulations were made by mixing different LNP/Barcode complex formulations together in equal parts (unless otherwise noted), to form Study Groups 1 and 2. Study Group 1 was dosed with a complex formulation that included formulations F-1, F-2, F-3, F-4, F-5, F-6, F-7, F-8 and F-16 in equal parts. Study Group 2 was dosed with a complex formulation that included formulations F-9, F-10, F-11, F-12, F-13, F-14, F-15, F-16 and F-17 in equal parts, except for F-10 which was mixed at 1/10th the concentration. BALB/c mice were injected via tail vein with 0.01 mg/kg (per unique barcoded payload, except for oRNA2A in F-10, which was dosed at 0.001 mg/kg) for each of Study Groups 1 and 2 in a total volume of 5 mL/kg. Each Study Group was dosed in 6 mice, and an additional 3 mice were dosed with PBS control. At 6 hr post injection, 3 animals from Study Group 1 were humanely euthanized by CO2 inhalation and organs including liver, spleen, lung, heart, kidney, brain, and blood were collected and snap frozen using liquid nitrogen. […] BLI images were detected in the auto-exposure mode. The BLI signal was quantitated using Living Image 4.7 software (Perkin Elmer) following the manufacturer's instruction. After BLI analysis the weights of the collected organs was measured. […]

CCCCCCCCCCCCCCCCCC[N+](C)(CCCCCCCCCCCCCCCCCC)CCNC(=N)N.[Cl-] [Lipid 2]
delivery to organs (barcode ratios normalized to the input material): superior delivery in most organs tested
